Measurements from patent publication US8889705B2, “Noscapine analogs and their use in treating cancers” (Emory University, priority 2007, dated 2014).
Entries after “also recorded” stand apart in the source; their conditions may differ.

Experiments:
CEM cells = assay: In vitro cell proliferation MTS assay; type: cell-based; details: Homo sapiens, CCRF-CEM, 72 hours
Experimental: (§1) Suspension cells (CEM, CEMNLB100 and CEM/VM-1-5) were cultured in RPMI-1640 media containing 10% FBS and then seeded into 96-well plates at a density of 5×10^3 cells per well and were treated with increasing gradient concentrations of 9-nitro-nos for 72 hours. Measurement of cell proliferation was performed colorimetrically by 3-(4,5-dimethylthiazol-2-yl)-5-(3-carboxymethoxyphenyl)-2-(4-sulphophenyl)-2H-tetrazolium, inner salt (MTS) assay, using the CellTiter96 AQueous One Solution Reagent (Promega, Madison, Wis.). Cells were exposed to MTS for 3 hours and absorbance was measured using a microplate reader (Molecular Devices, Sunnyvale, Calif.) at an optical density (OD) of 490 nm. The percentage of cell survival as a function of drug concentration for both the assays was then plotted to determine the IC50 value, which stands for the drug concentration needed to prevent cell proliferation by 50%.
as §1, with “(CEM)” for “(CEM, CEMNLB100 and CEM/VM-1-5)”, “were” for “were cultured in RPMI-1640 media containing 10% FBS and then”, “increasing” for “increasing gradient”, “all halogenated analogs” for “9-nitro-nos”

1A9/PTX22 cells = assay: Cell cycle analysis (propidium iodide, flow cytometry); type: cell-based, human; details: 1A9/PTX22, 50 μM
Experimental: (§2) The flow cytometric evaluation of the cell cycle status was performed as described previously (Zhou et al., 2003). Briefly, 2×10^6 cells were centrifuged, washed twice with ice-cold PBS, and fixed in 70% ethanol. Tubes containing the cell pellets were stored at 4° C. for at least 24 hours. Cells were then centrifuged at 1000×g for 10 min and the supernatant was discarded. The pellets were washed twice with 5 ml of PBS and then stained with 0.5 ml of propidium iodide (0.1% in 0.6% Triton-X in PBS) and 0.5 ml of RNase A (2 mg/ml) for 45 minutes in dark. Samples were then analyzed on a FACSCalibur flow cytometer (Beckman Coulter Inc., Fullerton, Calif.).

[1] = tested on: normal human fibroblast cells; assay: as above; type: cell-based; details: 100 μM
Experimental: as §2

In the case of `COc1ccc2c(c1OC)C(=O)O[C@@H]2[C@H]1c2c(c([N+](=O)[O-])c3c(c2OC)OCO3)CCN1C` [9-nitro-nos, (S)-6,7-dimethoxy-3-((R)-4-methoxy-6-methyl-9-nitro-5,6,7,8-tetrahydro-[1,3]dioxolo[4,5-g]isoquinolin-5-yl)isobenzofuran-1(3H)-one], the IC50 (CEM cells) is reported as 10 µM, the G0/G1 (1A9/PTX22 cells; 0 h) is reported as 57.0% and the G2/M (1A9/PTX22 cells; 0 h) is reported as 20.4%. The S (1A9/PTX22 cells; 0 h) was 8.8%, the Sub-G1 (1A9/PTX22 cells; 0 h) was 3.5% and the G0/G1 (1A9/PTX22 cells; 24 h) was 27.3%. For the same molecule, the G2/M (1A9/PTX22 cells; 24 h) was 31.4%, the S (1A9/PTX22 cells; 24 h) was 4.7% and the Sub-G1 (1A9/PTX22 cells; 24 h) was 30.0%. It also gave a G0/G1 (1A9/PTX22 cells; 48 h) of 5.9%, a G2/M (1A9/PTX22 cells; 48 h) of 44.3% and an S (1A9/PTX22 cells; 48 h) of 3.4%. The Sub-G1 (1A9/PTX22 cells; 48 h) was 44.6%, the G0/G1 (1A9/PTX22 cells; 72 h) was 14.1% and the G2/M (1A9/PTX22 cells; 72 h) was 13.7%. The S (1A9/PTX22 cells; 72 h) was 5.7%, the Sub-G1 (1A9/PTX22 cells; 72 h) was 59.0% and the “cell cycle profile of normal human fibroblast cells” value [1] was “did not observe any perturbations in the cell cycle profile; also recorded: did not alter the cell cycle progression profile”.
